According to US20230355602A1, “TREATMENT AND/OR PREVENTION OF A VIRAL INFECTION” (priority 2020, published 2023):

Legend:
SARS-CoV-2-Nluc viruses = assay: microbe, parasite or virus in culture; type: cell-based
in vitro [1] = type: cell-based; settings: human
Description: (§1) 12k cells (A549) per well in a 96-well plate. The compounds are added on the next day. 48 hrs treatment. 3-fold serial dilution for ASLAN 003 starting from 10 μM.

A549 cells = assay: in vitro; type: cell-based; settings: human, 48 h
Description: as §1

in vitro [2] = type: cell-based; settings: African green monkey
Description: Vero E6 cells were treated with the above compounds ata range of concentrations (0.0001, 0.001, 0.01, 1,10, 30, 50, and 100 μM) and incubated for 4 days. After incubation, the media was removed from the plates and washed once with PBS before addition of alamarBlue Cell Viability Reagent (Thermo Fisher Scientific) diluted 1:10 in media with 2% FCS. Fluorescence was detected after 2.5 h incubation at an excitation wavelength of 570 nm and an emission wavelength of 600 nm on an Infinite 200 Pro multiplate reader (Tecan). Data obtained from compound-treated cells and vehicle-treated cells were normalised against those obtained from untreated cells.

[3] = tested on: SARS-CoV-2 (hCoV-19/Singapore/10/2020); assay: Dose-dependent inhibition assay with plaque assay titration in Vero E6 cells; type: cell-based
[4] = tested on: Dengue virus (serotypes 1, 2, 3 or 4); assay: Dengue virus assay in Huh7 cells (viral titer); type: cell-based
Zika virus = Zika virus assay in Huh7 cells (viral titer); type: cell-based
CHIKV = assay: Chikungunya virus assay in Huh7 cells (viral titer); type: cell-based
[5] = human, in vivo
clinical = settings: human, in vivo
[6] = Severe acute respiratory syndrome coronavirus 2, Vero C1008, 96 h

COc1cccc(-c2cc(F)c(Nc3ncccc3C(=O)O)c(F)c2)c1 [ASLAN003, 2-(3,5-difluoro-3′-methoxybiphenyl-4-ylamino) nicotinic acid]
efficacy (potency) against SARS-CoV-2 (SARS-CoV-2-Nluc viruses): sub-micromolar potency | IC50 (SARS-CoV-2-Nluc viruses; Severe acute respiratory syndrome coronavirus 2, 48 h, read-out: SARS-COV-2 Reporter Assay (IC50, μM)): 0.812 µM | IC50 at 48 h (in vitro [1]): > 10 µM | IC50 (A549 cells): > 10 µM | change in A549 cell viability (A549 cells): no change in A549 cell viability | CC50 at 4 days (in vitro [2]): 87.2 µM | EC50 [3, 6]: 1.42 nM | EC90 [3, 6]: 3.88 nM | inhibition of SARS-CoV-2 in Vero E6 cells (viral titre) ([3]; treated post virus infection, 0.0001 to 100 μM): Dosage dependent inhibition | efficacy (potency) against Dengue [4]: sub-micromolar potency | efficacy (potency) against Zika (Zika virus): sub-micromolar potency | efficacy (potency) against Chikugunya (CHIKV): sub-micromolar potency | PK profiles in Asian and Caucasian patients [5]: equivalent | safety and tolerability, liver enzyme rises [5]: safe and well-tolerated with no evidence of significant liver enzyme rises | time until full exposure is achieved [5]: ≤ 24 h | half-life (clinical): 1080 min
